“Also recorded” adds a separate entry of the source. Like-named read-outs stand apart in the source and are kept apart here.
Tests used:
Aqueous solubility = assay type: physicochemical
human TLR2 = human TLR2 (Homo sapiens (Human), UniProt O60603); test: human TLR2-specific NF-κB reporter gene assay (HEK-Blue cells); assay type: cell-based
Excerpt: (§1) The induction of NF-κB in a TLR2-specific reporter gene assay was quantified using HEK-BLUE™ cells as previously described (Wu, W. et al., J. Med. Chem. 2010, 53, 3198-3213). HEK293 cells stably transfected with either human TLR2 or murine TLR2 and alkaline phosphatase (sAP) were obtained from InvivoGen (San Diego, Calif.), and were maintained in HEK-BLUE™ Selection medium containing zeocin and normocin. Stable expression of secreted alkaline phosphatase (sAP) under control of NF-κB promoters is inducible by TLR2 agonists, and extracellular sAP in the supernatant is proportional to NF-κB induction. HEK-Blue cells were incubated at a density of ˜10^5 cells/mL in a volume of 80 μL/well, in 384-well, flat-bottomed, cell culture-treated microtiter plates until confluency was achieved, and then stimulated with serially-diluted aliquots of compounds for 12 h. sAP was assayed spectrophoto-metrically using an alkaline phosphatase-specific chromogen (present in the HEK-detection medium as supplied by the vendor) at 620 nm. For antagonism assays, HEK-Blue cells were incubated at a density of ˜10^5 cells/mL in a volume of 80 μL/well and stimulated with either PAM2CS (1 μg/mL) or lipoteichoic acid (1 μg/mL) in the presence of graded concentrations of the test compounds as described for TLR7 previously (Shukla, N. M.; et al., Bioorg. Med. Chem. Lett. 2009, 19, 2211-2214; Shukla, N. M. et al., Bioorg. Med. Chem. 2011, 19, 3801-3811).

murine TLR2 = murine TLR2 (Mus musculus (Mouse), UniProt Q9QUN7); test: murine TLR2-specific NF-κB reporter gene assay (HEK-Blue cells); assay type: cell-based
Sequence of murine TLR2 (Q9QUN7 25-784): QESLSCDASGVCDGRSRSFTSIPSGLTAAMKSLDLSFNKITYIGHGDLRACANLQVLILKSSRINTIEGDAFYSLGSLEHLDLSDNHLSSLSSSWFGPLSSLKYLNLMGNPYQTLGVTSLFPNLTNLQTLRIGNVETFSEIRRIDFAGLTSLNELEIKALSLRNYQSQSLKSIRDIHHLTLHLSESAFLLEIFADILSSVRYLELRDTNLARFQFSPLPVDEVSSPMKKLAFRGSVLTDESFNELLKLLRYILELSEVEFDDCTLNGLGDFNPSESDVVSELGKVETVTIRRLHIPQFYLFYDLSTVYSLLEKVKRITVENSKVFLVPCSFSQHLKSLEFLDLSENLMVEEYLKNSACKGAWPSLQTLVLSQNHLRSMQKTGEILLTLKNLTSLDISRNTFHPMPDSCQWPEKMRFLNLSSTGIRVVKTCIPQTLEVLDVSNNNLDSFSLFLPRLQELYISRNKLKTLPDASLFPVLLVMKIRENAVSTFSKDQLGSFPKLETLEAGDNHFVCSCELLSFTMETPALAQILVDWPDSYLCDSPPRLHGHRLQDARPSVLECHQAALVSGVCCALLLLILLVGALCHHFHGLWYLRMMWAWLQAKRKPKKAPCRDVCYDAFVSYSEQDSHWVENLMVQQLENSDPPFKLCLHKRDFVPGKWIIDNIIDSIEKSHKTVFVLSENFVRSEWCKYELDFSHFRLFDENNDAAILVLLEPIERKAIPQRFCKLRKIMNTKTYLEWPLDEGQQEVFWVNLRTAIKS
Excerpt: as §1, with “For antagonism assays, HEK-Blue cells were incubated at a density of ˜10^5 cells/mL in a volume of 80 μL/well and stimulated with either PAM2CS (1 μg/mL) or lipoteichoic acid (1 μg/mL) in the presence of graded concentrations of the test compounds as described for TLR7 previously (Shukla, N. M.; et al., Bioorg. Med. Chem. Lett. 2009, 19, 2211-2214; Shukla, N. M. et al., Bioorg. Med. Chem. 2011, 19, 3801-3811).” left out

[1] = tested on: anti-bovine α-lactalbumin IgG responses; test: Rabbit immunization with bovine α-lactalbumin, antigen-specific IgG ELISA; assay type: in vivo
Procedure: All experiments were performed in accordance with institutional guidelines (University of Kansas IACUC permit #119-06) which specifically approved this study. All antigen/adjuvant preparations were entirely aqueous; no liposomal or emulsifying agents were used. Cohorts of adult female New Zealand White rabbits (n=4) were immunized intramuscularly in the flank region with (a) 100 μg of bovine α-lactalbumin in 0.2 mL saline, or (b) 100 μg of bovine α-lactalbumin plus 100 μg of compound 25 in 0.2 mL saline, or (d) 100 μg of bovine α-lactalbumin plus 100 μg of dual TLR2-agonistic PAM2CSK4 (control). Pre-immune test-bleeds were first obtained via venipuncture of the marginal vein of the ear. […] A final test-bleed was performed via the marginal vein of the ear on Day 38. Sera were stored at −80° C. until used.
Bovine α-lactalbumin-specific ELISAs were performed in 384-well format using automated liquid handling methods as described (Shukla, N. M. et al. Bioorg. Med. Chem. Lett. 2011, 21, 3232-3236). Examination of the affinity of antigen-specific IgG using chaotropic ELISA (Pullen, G. R. et al. J. Immunol. Methods 1986, 86, 83-87 and Macdonald, R. A. et al. J. Immunol. Methods 1988, 106, 191-194). […] Plates were then read at 450 nm using a SpectraMax M4 device (Molecular Devices, Sunnyvale, Calif.).

TLR7 = TLR7 (Homo sapiens (Human), UniProt Q9NYK1); test: primary human TLR-specific reporter gene assay, TLR7 cell line; assay type: cell-based; conditions: relative to parent compounds
Sequence of TLR7 (Q9NYK1 27-1049): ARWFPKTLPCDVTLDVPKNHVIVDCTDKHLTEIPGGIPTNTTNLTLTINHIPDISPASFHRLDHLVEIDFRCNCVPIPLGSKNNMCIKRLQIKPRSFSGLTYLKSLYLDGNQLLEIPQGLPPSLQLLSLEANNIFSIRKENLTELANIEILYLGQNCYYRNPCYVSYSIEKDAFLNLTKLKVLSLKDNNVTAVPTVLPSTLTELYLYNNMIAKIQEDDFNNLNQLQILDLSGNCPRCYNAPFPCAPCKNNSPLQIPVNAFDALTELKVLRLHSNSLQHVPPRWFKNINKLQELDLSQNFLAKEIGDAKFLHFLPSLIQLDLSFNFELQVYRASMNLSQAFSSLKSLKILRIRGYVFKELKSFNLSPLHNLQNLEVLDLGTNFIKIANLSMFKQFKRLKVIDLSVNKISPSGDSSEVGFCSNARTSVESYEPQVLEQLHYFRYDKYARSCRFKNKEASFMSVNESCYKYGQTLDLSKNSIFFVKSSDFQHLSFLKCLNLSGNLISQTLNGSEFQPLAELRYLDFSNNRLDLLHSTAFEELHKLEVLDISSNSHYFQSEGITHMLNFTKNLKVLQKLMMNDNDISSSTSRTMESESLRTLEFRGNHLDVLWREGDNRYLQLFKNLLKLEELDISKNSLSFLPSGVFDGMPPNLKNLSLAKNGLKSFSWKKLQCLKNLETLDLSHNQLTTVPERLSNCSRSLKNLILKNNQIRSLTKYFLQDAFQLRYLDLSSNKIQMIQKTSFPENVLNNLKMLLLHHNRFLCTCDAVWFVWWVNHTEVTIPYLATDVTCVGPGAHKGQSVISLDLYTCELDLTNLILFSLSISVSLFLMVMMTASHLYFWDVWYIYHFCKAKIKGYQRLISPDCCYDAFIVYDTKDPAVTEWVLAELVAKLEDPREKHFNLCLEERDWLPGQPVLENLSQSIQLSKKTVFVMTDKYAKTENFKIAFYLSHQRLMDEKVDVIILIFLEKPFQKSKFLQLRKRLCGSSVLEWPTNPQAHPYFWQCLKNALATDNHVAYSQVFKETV

[2] = Stability of aqueous stocks; assay type: physicochemical
[3] = human TLR2-specific reporter gene assay
[4] = human TLR2-specific reporter gene assay, ND = no activity detected at 10 μM, read-out: TLR2-Agonistic Activity (EC50 in nM)

Sequence of human TLR2 (O60603 21-784): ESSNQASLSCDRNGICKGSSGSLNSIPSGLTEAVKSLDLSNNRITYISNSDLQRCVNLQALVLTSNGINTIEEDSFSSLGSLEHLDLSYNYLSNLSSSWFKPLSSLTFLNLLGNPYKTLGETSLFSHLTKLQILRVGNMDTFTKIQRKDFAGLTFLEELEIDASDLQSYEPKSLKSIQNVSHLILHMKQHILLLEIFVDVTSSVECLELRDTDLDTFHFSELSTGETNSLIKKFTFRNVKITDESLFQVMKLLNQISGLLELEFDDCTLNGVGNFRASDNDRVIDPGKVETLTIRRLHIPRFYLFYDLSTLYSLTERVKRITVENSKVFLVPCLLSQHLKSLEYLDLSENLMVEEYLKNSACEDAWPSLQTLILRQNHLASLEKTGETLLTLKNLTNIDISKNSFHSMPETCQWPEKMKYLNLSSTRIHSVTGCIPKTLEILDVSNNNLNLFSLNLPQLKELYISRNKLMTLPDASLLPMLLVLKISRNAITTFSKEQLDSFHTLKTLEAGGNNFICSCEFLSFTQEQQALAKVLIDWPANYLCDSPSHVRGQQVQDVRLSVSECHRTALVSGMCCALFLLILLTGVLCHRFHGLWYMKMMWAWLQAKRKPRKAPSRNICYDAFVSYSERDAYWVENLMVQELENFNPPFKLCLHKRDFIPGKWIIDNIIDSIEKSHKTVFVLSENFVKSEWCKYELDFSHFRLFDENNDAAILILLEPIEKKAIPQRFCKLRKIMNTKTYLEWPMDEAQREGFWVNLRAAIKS

In the case of `CCCCCCCCCCCCCCCC(=O)OCCSC[C@H](N)C(=O)N[C@@H](CO)C(=O)OC` [Compound 6d], the water solubility (Aqueous solubility) is reported as “water-soluble”, the EC50 (human TLR2; hTLR2 reporter gene assay, read-out: EC50 in engaging hTLR2) is reported as 3.6 nM and the “remark beside the EC50 (potency)” value (human TLR2; [3]) is reported as “Low potency”. For the same molecule, the “agonistic activity in mTLR2 / specificity for hTLR2” value (murine TLR2) was “activating human TLR2 (hTLR2), but not murine TLR2 (mTLR2); also recorded: entirely inactive”.
With PAM2CSK4 [reference compound] the adjuvanticity ([1]; New Zealand White rabbits, direct comparison with glucopyranosyl lipid A) was “highly adjuvantic”.
In the case of `CCCCCCCCCCCCCCCCOC(=O)NCCSC[C@H](NC(C)=O)C(=O)N[C@@H](CO)C(=O)NCc1ccc(Cn2c(CCCC)nc3c(N)nc4ccccc4c32)cc1` [Compound 54, Hexadecyl(2-(((R)-2-acetamido-3-(((S)-1-((4-((4-amino-2-butyl-1H-imidazo[4,5-c]quinolin-1-yl)methyl)benzyl)amino)-3-hydroxy-1-oxopropan-2-yl)amino)-3-oxopropyl)thio)ethyl)carbamate], the “activity in TLR7 cell line” value (TLR7) is reported as “less active than their parent compounds”, the “hTLR2-agonistic activity in words” value (human TLR2; hTLR2 reporter gene assay) is reported as “less active than their parent compounds” and the EC50 (human TLR2; [4]) is reported as 221 nM.
In the case of `CCCCCCCCCCCCCCCCCC(=O)OCCSC[C@H](N)C(=O)N[C@@H](CO)C(=O)OC` [Compound 6e, 2-(((R)-2-amino-3-(((S)-3-hydroxy-1-methoxy-1-oxopropan-2-yl)amino)-3-oxopropyl)thio)ethyl stearate], the “remark beside the EC50 (potency)” value (human TLR2; [3]) is reported as “Low potency”, the EC50 (human TLR2; [4]) is reported as 4.79 nM and the “agonistic activity in mTLR2 / specificity for hTLR2” value (murine TLR2) is reported as “entirely inactive”.
In the case of `CCCCCCCCCCCCCCCC(=O)OCCSC[C@H](NC(C)=O)C(=O)N[C@@H](CCCCN)C(=O)OC` [Compound 23, 2-(((R)-2-Acetamido-3-(((S)-6-amino-1-methoxy-1-oxohexan-2-yl)amino)-3-oxopropyl)thio)ethyl palmitate], the water solubility (Aqueous solubility) is reported as “highly water soluble”, the “stability of aqueous stocks” value [2] is reported as “significant loss of activity of aqueous stocks within about a week” and the EC50 (human TLR2; [4]) is reported as 0.225 nM.
For `CCCCCCCCCCCCCCCC(=O)OCCSC[C@H](NC(C)=O)C(=O)N[C@@H](COC(=O)[C@@H](N)CCCCN)C(=O)OC.Cl.Cl` [Compound 25, 2-(((R)-2-Acetamido-3-(((S)-3-(((S)-2,6-diaminohexanoyl)oxy)-1-methoxy-1-oxopropan-2-yl)amino)-3-oxopropyl)thio)ethyl palmitate], the water solubility (Aqueous solubility) was “exceptionally water soluble”, the “stability of aqueous stocks” value [2] was “unstable” and the “induction of anti-bovine α-lactalbumin IgG responses” value ([1]; rabbits, prime+single-boost model, FIG. 2) was “excellent induction”. The EC50 (human TLR2; [4]) was 6.81 nM.
With `CCCCCCCCCCCCCCCCOC(=O)NCCSC[C@H](NC(C)=O)C(=O)N[C@@H](CO)C(=O)NCCCN(C)C` [Compound 52, Hexadecyl ((8S,11R)-11-acetamido-8-(hydroxymethyl)-2-methyl-7,10-dioxo-13-thia-2,6,9-triazapentadecan-15-yl)carbamate] the water solubility (Aqueous solubility) was “restored” and the EC50 (human TLR2; [4]) was 0.279 nM.

From patent publication US9676818B2, “Toll-like receptor 2-agonistic lipopeptides, and method of making the same” (University of Kansas, priority 2013, dated 2017)
